PubChem BioAssay (NCI)
“And” between values parts separate entries of the source, which are not always exact repeats. Identical values can stand only once.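 Values below derive from 48-hour exposures of cells grown in 96-well plates, with endpoints linearly interpolated between the two concentrations bracketing the appropriate inhibition level. GI50 = concentration required for 50% inhibition of growth. The concentration for full growth arrest is given as TGI.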

Legend:
Test in all cases: NCI-60 cell line screen, 48 h
[1] = tested on: RXF 393 renal
[2] = tested on: SK-MEL-28 melanoma
[3] = tested on: DU-145 prostate
[4] = tested on: SF-268 CNS
[5] = tested on: OVCAR-4 ovarian
[6] = tested on: HOP-62 NSCLC
[7] = tested on: SR leukemia
[8] = tested on: HT29 colon
[9] = tested on: ACHN renal
[10] = tested on: CCRF-CEM leukemia

Compound	GI50 [1] [µM]	TGI [1] [µM]	GI50 [2] [µM]	TGI [2] [µM]	GI50 [3]	TGI [3] [µM]	GI50 [4] [µM]	TGI [4] [µM]	GI50 [5] [µM]	TGI [5] [µM]	GI50 [6] [µM]	TGI [6] [µM]	GI50 [7] [µM]	TGI [7] [µM]	GI50 [8] [µM]	TGI [8] [µM]	GI50 [9] [µM]	TGI [9] [µM]	GI50 [10] [µM]	TGI [10] [µM]
COc1ccc2c(c1)C(=O)/C(=C/c1ncc([N+](=O)[O-])n1C)O2	1.01	3.03	0.317	1.91	0.868 µM	2.98	0.421	2.1	2.27	7.12	2.07	5.03	0.0239	1.35	0.244	0.78	0.204	0.596	0.141	0.622
O=c1[nH]cnc2[nH]ncc12	266	> 5000	2000	> 5000	> 92.6 µM and 189 µM	> 2150	> 5000	> 5000	160	> 3050	353	> 5000	480	> 2670	842	> 5000	193	> 5000	360	> 5000
COc1cc(/C=C2\CN(C)C/C(=C\c3cc(CN4CCCCC4)c(O)c(OC)c3)C2=O)cc(CN2CCCCC2)c1O	2.01	6.86	11.6	24.5	3.88 µM	13.7	3.97	17.4	4.77	54.1	4.28	18.4	3.15	9.37	2.43	6.42	3.95	13.9	2.77	7.52
COC(=O)C1(F)C(=O)NC(=O)NC1O (stereo not given)	–	> 100	–	> 100	–	> 100	–	> 100	–	> 100	–	> 100	–	> 100	–	> 100	–	> 100	–	> 100
Cc1c(C)[n+](=O)c(C)c(C)n1[O-]	> 100	> 100	> 100	> 100	> 100 µM	> 100	> 100	> 100	> 100	> 100	> 100	> 100	> 100	> 100	–	–	> 100	> 100	> 100	> 100
COc1ccc(/C=C/C(=O)Oc2cc(O)cc(O)c2)cc1	–	> 100	–	> 100	–	> 100	–	86.5	–	> 100	–	31.5	–	> 100	–	> 100	–	> 100	–	37.3
COc1ccc(-c2ccc(-c3ccc(-c4ccc(C(=N)N)cc4)s3)s2)cc1OC	11.2	34.6	18.1	40.6	0.478 µM	2.23	19.5	50.9	–	–	3.26	17.9	1.74	6	–	–	3.79	15.3	2.24	6.4
CO[C@@H]1/C=C(C)/C=C/[C@@H](C)/C=C(\C)C(=O)OC(/C(C)=C/C=C(\C)CNC(=O)[C@H](CO)NC=O)[C@@H](C)/C=C/C=C/[C@H](OC)CC/C=C(C)/C=C/C1 (stereo not given in full)	0.285	0.808	0.00843	11.4	0.169 µM	14.5	< 0.005	1.09	< 0.005	> 50	< 0.005	< 0.005	< 0.005	> 11.9	< 0.005	> 50	0.00904	0.187	< 0.005	16.5
O=C(N/N=C/c1ccc([N+](=O)[O-])cc1)c1ccc2nc(-c3ccc(Cl)cc3)[nH]c2c1	2.03	7.07	2.6	10.3	3.99 µM	21.4	4.97	24.3	2.75	8.64	6.42	30.8	0.566	4.87	3.02	> 100	4.36	31.9	0.591	17.7
CC(C)NC(=O)OCc1c(COC(=O)NC(C)C)c(-c2ccc(Cl)cc2)n2c1CCC2	1.85	4.32	7.52	22.2	2.1 µM	7.18	2.25	13.5	2.7	14.3	3.05	16.2	0.218	–	4.02	26.4	1.34	9.19	1.04	> 33.4
C=C(c1ccc(C(=O)N(C)c2ccccc2N)cc1)C(C)N1C(=O)[C@H]2CCCN2C(=O)c2ccccc21 (stereo not given in full)	> 100	> 100	31.2	> 100	33.3 µM	> 100	25	> 100	2.91	41.2	31.6	> 100	18.7	74.9	16.1	80.2	36.5	> 100	27.4	> 100
O=C(O)c1cc2cc(OCc3ccccc3)c(OCc3ccccc3)cc2[nH]1	14.6	30.4	19.5	43.2	32.8 µM	> 100	26.4	79.7	34.9	> 100	16.4	52.4	21.8	> 100	29.5	59.6	25.4	90.1	33.6	> 100
O=C(c1ccco1)c1c(C(F)(F)F)n([O-])c2ccccc2[n+]1=O	1.43	9.45	15.9	50	0.367 µM	0.969	0.515	2.56	5.45	15.4	0.949	4.34	0.0737	0.523	4.2	50	0.506	4.21	0.671	3.71
NC1=NC(c2ccc(Cl)cc2)C2=C(N1)/C(=C/c1ccc(Cl)cc1)CCC2 (stereo not given)	2.05	4.45	17	45.4	7.91 µM	29.6	7.35	> 38.9	13.9	76.5	15	53	3.69	9.84	3.14	9.78	18	> 66.2	5.95	> 81.5
C=C1C(=O)O[C@H]2[C@H]1CC/C(COC(=O)NCCc1c[nH]c3ccc(OC)cc13)=C\CC[C@@]1(C)O[C@@H]21	1.46	2.92	1.65	3.22	1.61 µM	4.43	3	13.1	1.69	5.09	3.49	15.7	1.02	9.33	1.58	3.09	1.38	2.72	0.64	4.36
C=C1C(=O)O[C@H]2[C@H]1CC/C(COC(=O)CSCC(=O)OC/C1=C/CC[C@@]3(C)O[C@H]3[C@H]3OC(=O)C(=C)[C@@H]3CC1)=C\CC[C@@]1(C)O[C@@H]21	0.416	1.52	1.55	3.61	1.5 µM	3.05	3.28	13.9	1.79	4.6	5.25	20.2	0.282	2.15	1.22	2.56	1.23	2.48	0.268	1.25
O=C(Nc1ccccc1O)c1ccc(Oc2cccc(C(=O)Nc3ccccc3O)c2)cc1	1.81	6.42	1.84	12.2	3.37 µM	11.9	2.91	15	2.42	9.03	2.24	12.5	0.56	11.4	4.93	16.9	2.64	11.9	0.409	9.15
COc1ccc(C(=O)c2cc3c(OC)c(OC)c(OC)cc3[nH]2)cc1	10.2	95.7	8.79	> 100	> 100 µM	> 100	68.1	> 100	> 100	> 100	19.6	80.9	0.295	2.57	4	> 100	12.8	> 100	5.27	> 100
O=C(O)c1cc(N=Cc2ccccc2O)cc(C(=O)O)c1	–	> 100	–	> 100	–	> 100	–	> 100	–	> 100	–	> 100	–	> 100	–	> 100	–	> 100	–	> 100
COc1cccc2c1C(=O)c1c(O)c3c(c(O)c1C2=O)C[C@@](O)(C(=O)CO)C[C@@H]3OC1C[C@H](N)[C@H](O)[C@H](C)O1 (stereo not given in full)	0.0751	0.25	0.0797	0.198	0.0684 µM	–	0.0616	0.982	0.133	2.9	0.033	0.323	0.00558	0.826	0.0958	–	0.0257	0.242	0.0186	0.428
c1cn2cc(-c3ccc4cn[nH]c4c3)nc(Nc3ccc(N4CCOCC4)cc3)c2n1	2.47	18.3	13	40.5	11.4 µM	23.5	5.11	27.4	7.78	36.2	3.81	16.1	6.66	27.5	9.01	37	11.1	32.2	> 100	> 100
c1ccc(-c2nc(-c3ccccc3)c(-c3ccccc3)[nH]2)cc1	–	> 100	–	> 100	–	> 100	–	> 100	–	> 100	–	> 100	–	46.3	–	> 100	–	> 100	–	36.5
COc1cccc(/C=C/c2cnc3ccccc3n2)c1OC	–	96.1	–	> 100	–	> 100	–	> 100	–	> 100	–	64.9	–	> 100	–	98.1	–	> 100	–	> 100
O=C(CCl)N1c2ccccc2Sc2ccc3ccccc3c21	1.49	2.83	1.65	3.01	1.53 µM	2.9	1.64	3.16	0.659	2.9	1.63	3.05	0.634	9.74	1.28	4.58	0.801	2.01	0.22	0.533
O=C(Cc1cccc(OC(F)(F)F)c1)Nc1ccc(CCCCc2nnc(NC(=O)Cc3ccccn3)s2)nn1	4.34	22.7	93.1	> 100	25.8 µM	> 100	13.6	39.1	7.23	29	–	–	33.7	> 100	24.3	96.7	20.9	> 100	32.1	> 100
O=c1cc(-c2ccccc2)[nH]n1-c1nc2ccccc2[nH]1	3.94	34.8	3.61	> 100	9.97 µM	> 100	8.67	> 100	–	–	4.96	> 100	5.86	> 100	–	–	4.36	> 100	1.22	> 100
